Test results reported in publication PMC10460728 (Journal of Pharmacokinetics and Pharmacodynamics, 2023).

Experiments:
[1] = PBPK models of enzalutamide and M2 (Simcyp)
From the text: Many of the physicochemical properties and plasma protein binding data were obtained internally and also referenced from FDA documents, which are available from the FDA website. […] Accordingly, the solution formulation option in the Simcyp model was used.
The PBPK models of CYP2C8 inhibitor (gemfibrozil), CYP3A4 substrate (midazolam), and P-gp substrate (digoxin) were used from the Simcyp software library with models that were verified for their intended purpose.

[2] = target: CYP3A5 (Homo sapiens, UniProt P20815); test: In vitro CYP3A5 inhibition (internal data); assay type: biochemical
[3] = clinical; conditions: human, plasma, po, 160 mg; for Cmax: observed, mean
[4] = plasma; ref FDA CP review; cited from earlier work
[5] = test system: CYP3A4; test: in vitro; conditions: human, freshly isolated, cultured human hepatocytes
Protocol: (§1) Hepatocytes were cultured according to previously described methods [8]. […] Single-stranded cDNA was prepared from RNA with the RT Master Mix using the AB 7900HT Fast Real Time PCR System thermocycling program. Quantitative RT-PCR was carried out in triplicate. Relative quantification measures the change in mRNA expression in a test sample relative to that in a control sample (e.g., DMSO). This method assumes that the efficiency of the target amplification and the efficiency of the endogenous control amplification are approximately equal.
(§2) The maximal fold induction (Indmax) and half concentration to reach Indmax (IndC50) were determined based on the following equation: Foldinduction=1+Indmax-1×Ct/IndC50+Ct where Ct is the test drug concentration.

[6] = target: T1, OAT3 (Homo sapiens, UniProt Q8TCC7); test: In vitro OAT3 inhibition (internal data); assay type: cell-based
T1 sequence (Q8TCC7 1-542): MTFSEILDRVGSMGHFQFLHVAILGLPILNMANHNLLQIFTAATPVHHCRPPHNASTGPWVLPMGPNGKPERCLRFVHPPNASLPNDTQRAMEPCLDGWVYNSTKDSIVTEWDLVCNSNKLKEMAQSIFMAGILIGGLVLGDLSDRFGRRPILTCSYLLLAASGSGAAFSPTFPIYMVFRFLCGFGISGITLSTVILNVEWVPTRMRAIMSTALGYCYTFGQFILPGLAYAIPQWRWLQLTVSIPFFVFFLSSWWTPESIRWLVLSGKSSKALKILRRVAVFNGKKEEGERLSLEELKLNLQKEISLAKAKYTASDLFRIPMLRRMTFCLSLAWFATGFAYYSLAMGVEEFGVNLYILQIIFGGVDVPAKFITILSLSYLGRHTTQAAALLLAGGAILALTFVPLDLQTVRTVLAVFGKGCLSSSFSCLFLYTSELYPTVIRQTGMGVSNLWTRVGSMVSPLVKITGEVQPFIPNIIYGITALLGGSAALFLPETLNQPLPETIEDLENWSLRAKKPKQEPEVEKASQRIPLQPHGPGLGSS

[7] = target: P-gp (human MDR1) (Homo sapiens, UniProt P08183); test: In vitro P-gp inhibition: 3H-digoxin permeation across control and MDR1-expressing LLC-PK1 cell monolayers
Protocol: MDR1-expressing cells (porcine kidney epithelial LLC-PK1 cells transfected with human MDR1 cDNA) was used. The MDR1-expressing cells were seeded at a density of 4 × 10^4 cells/insert in plates and were incubated in a CO2 incubator (37 °C, CO2: 5%) for 7 to 9 days to prepare cell monolayers. […] After incubation for 4 h at 37 °C, a 70-μL aliquot of the incubation solutions was collected as the analytical sample from the opposite compartment of that spiked with test solutions (receiver compartment). The collected samples were immediately combined with 10 mL of scintillator, and the radioactivity was counted using the LSC. Permeability coefficient (Papp) of ^3H-digoxin was calculated using the following equation: Pappcm/sec=[dQ/dt]/A/C0 where dQ/dt is the transport rate (dpm/sec); A is the membrane area (cm^2); C0 is the initial concentration (dpm/mL). The ratio of permeability coefficient (Papp ratio) was calculated from the basal to apical Papp and apical to basal Papp according to the following equation: Pappratio=BasaltoapicalPapp/ApicaltobasalPapp
Furthermore, the ratios of the Papp ratios in MDR1-expressing cells to the Papp ratios in control cells were calculated as corrected Papp ratio according to the following equation: CorrectedPappratio=PappratiooftheMDR1expressingcells/Pappratioofthecontrolcells
The % of control was calculated from the corrected Papp ratio according to the following equation: \% \,of\,control=CorrectedPappratio\,in\,the\,absence\,or\,presence\,of\,inhibitors/CorrectedPappratio\,in\,the\,absence\,of\,inhibitors×100

[8] = parameters: method as in FDA CP review; conditions: ref FDA CP review; cited from earlier work
[9] = target: CYP3A4 (Homo sapiens, UniProt P08684); test: In vitro CYP3A4 inhibition (internal data); assay type: biochemical
[10] = once-daily oral 160 mg enzalutamide for 49 days; mean
[11] = cited from earlier work
[12] = Caco-2 passive permeability; assay type: in vitro ADME; conditions: human, Caco-2, pH 6.5; internal data; read-out: Papp Caco-2 passive permeability (pH6.5:7.5)
From the text: Many of the physicochemical properties and plasma protein binding data were obtained internally and also referenced from FDA documents [9], which are available from the FDA website.

[13] = test system: CYP3A4; conditions: calibrated with positive control rifampicin; Simcyp input
Protocol: as §1, §2

[14] = test system: CYP1A2; conditions: human, hepatocytes, 50 µmol/L
Protocol: as §1, §2

[15] = test system: P-gp; test: P-gp mRNA induction in cultured human hepatocytes; assay type: cell-based; conditions: 50 µmol/L
[16] = test system: P-gp and CYP3A; conditions: rivaroxaban; cited from earlier work
[17] = test system: CYP3A and P-gp; parameters: method as in PMID 33030266; conditions: assumed in model development, verified with clinical DDI studies; cited from earlier work
[18] = retrograde calculation from CLpo 0.60 L/h

P-gp (human MDR1), sequence (P08183 whole entry): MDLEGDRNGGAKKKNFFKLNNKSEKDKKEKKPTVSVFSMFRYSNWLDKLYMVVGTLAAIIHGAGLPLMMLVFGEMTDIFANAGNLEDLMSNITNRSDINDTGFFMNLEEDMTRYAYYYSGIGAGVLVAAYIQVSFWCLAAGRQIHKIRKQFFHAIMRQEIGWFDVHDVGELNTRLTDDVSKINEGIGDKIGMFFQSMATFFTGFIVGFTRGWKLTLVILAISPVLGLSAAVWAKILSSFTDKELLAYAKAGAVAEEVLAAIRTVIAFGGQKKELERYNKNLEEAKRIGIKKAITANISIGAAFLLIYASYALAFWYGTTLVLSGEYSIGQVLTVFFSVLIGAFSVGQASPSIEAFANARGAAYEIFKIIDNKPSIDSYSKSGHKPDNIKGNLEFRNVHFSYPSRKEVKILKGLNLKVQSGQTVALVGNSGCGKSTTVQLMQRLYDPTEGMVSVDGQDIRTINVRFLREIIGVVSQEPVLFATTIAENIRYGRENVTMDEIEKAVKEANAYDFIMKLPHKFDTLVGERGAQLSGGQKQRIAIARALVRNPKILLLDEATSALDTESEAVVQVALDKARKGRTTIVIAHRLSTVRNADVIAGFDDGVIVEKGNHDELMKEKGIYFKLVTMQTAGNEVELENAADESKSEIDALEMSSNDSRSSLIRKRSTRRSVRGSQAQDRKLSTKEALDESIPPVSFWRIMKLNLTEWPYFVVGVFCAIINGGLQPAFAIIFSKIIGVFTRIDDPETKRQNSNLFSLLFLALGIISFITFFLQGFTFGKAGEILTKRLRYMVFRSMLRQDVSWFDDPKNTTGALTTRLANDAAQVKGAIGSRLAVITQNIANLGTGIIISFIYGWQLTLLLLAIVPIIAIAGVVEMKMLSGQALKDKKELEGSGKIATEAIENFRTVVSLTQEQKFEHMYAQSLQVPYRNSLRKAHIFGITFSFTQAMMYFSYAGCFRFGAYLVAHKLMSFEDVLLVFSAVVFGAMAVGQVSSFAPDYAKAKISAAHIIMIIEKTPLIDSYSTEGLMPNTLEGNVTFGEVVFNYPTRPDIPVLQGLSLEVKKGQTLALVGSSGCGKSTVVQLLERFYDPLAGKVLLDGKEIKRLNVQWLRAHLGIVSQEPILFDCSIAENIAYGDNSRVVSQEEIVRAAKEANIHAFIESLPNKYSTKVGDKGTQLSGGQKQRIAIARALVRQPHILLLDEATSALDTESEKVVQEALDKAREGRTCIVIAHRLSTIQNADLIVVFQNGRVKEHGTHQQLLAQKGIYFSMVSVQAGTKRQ
CYP3A5, sequence (P20815 whole entry): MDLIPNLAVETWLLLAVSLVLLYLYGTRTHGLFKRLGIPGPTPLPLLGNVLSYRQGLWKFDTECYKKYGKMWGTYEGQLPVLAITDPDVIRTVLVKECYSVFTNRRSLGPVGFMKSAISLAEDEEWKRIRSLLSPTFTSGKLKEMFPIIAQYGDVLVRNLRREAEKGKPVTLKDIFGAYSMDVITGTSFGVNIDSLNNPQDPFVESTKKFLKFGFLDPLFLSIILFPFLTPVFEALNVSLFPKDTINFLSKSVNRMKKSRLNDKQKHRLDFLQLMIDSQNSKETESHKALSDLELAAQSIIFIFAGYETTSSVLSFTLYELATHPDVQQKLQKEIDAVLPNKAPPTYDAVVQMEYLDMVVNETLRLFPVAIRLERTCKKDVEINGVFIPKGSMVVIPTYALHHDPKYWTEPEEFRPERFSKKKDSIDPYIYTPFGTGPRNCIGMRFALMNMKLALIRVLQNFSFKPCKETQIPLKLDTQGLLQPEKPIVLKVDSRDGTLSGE
CYP3A4 (Homo sapiens, UniProt P08684), sequence (P08684 whole entry): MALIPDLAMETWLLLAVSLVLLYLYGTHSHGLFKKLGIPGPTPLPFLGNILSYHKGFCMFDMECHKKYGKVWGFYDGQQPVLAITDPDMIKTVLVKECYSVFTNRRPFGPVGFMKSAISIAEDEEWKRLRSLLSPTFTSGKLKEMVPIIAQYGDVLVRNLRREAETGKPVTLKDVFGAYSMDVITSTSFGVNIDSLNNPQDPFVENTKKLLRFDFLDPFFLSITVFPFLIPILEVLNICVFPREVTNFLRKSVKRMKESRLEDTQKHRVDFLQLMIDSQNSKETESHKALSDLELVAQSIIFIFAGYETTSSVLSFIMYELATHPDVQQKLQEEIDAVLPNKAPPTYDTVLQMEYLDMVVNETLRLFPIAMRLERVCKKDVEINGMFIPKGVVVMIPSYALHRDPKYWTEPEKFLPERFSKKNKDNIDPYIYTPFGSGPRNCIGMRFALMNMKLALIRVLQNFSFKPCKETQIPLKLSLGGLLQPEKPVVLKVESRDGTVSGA

With `CNC(=O)c1ccc(N2C(=S)N(c3ccc(C#N)c(C(F)(F)F)c3)C(=O)C2(C)C)cc1F` [Enzalutamide] the “CYP3A4 CLint for M2 formation” value ([1]; PBPK model parameter, see text) was 0.002312 mL/min/pmol enzyme, the “Peff,man” value ([1]; calculated from Caco-2 passive permeability calibrated to propranolol) was 5.15 10^–4 cm/s and the “Contribution of CYP2C8 on enzalutamide elimination” value ([1]; estimated from clinical DDI study with gemfibrozil) was 87%. For the same compound, the “CYP2C8 CLint for M2 formation” value [1, 18] was 0.1518 mL/min/pmol enzyme, the “CYP2C8 CLint for other pathway” value [1, 18] was 0.07475 mL/min/pmol enzyme and the “CYP3A4 CLint for other pathway” value [1, 18] was 0.003617 mL/min/pmol enzyme. The Ki [2] was 42 µM, the AUC [3] was 322 µg·h/mL and the AUC(0-inf) [3] was 288 µg·h/mL. It also gave a Tmax [3] of 0.75 h, a half-life [3] of 77.7 h and a Cmax ([3]; once-daily oral 160 mg enzalutamide for 49 days) of 16600 ng/mL. The Cmax ([3]; single oral 160 mg enzalutamide) was 5660 ng/mL, the fu [4] was 0.0244 and the EC50 [5] was 1.5 µM. The Ki [6] was 15.1 µM, the IC50 [7] was 1.67 µM and the Ki [7] was 1.67 µM. The “Log P” value [8] was 2.98, the Ki [9] was 42 µM and the “Cmin, observed” value [10] was 12000 ng/mL. For the same compound, the Vss ([11]; PBPK model parameter) was 0.967 L/kg, the “Estimated bioavailability based on mass balance data” value ([11]; oral) was no less than 84% and the Papp [12] was 31 ×10⁻⁶ cm/s. For the same compound, the “Indmax on CYP3A4, calibrated” value [13] was 11.43.

With `COc1ccc2[nH]c([S+]([O-])Cc3ncc(C)c(OC)c3C)nc2c1` (centres unmarked) [Omeprazole, omeprazole, reference compound] the “Fold increase CYP1A2 mRNA” value [14] was 46.4 ± 7.2 fold and the “Fold increase P-gp mRNA” value [15] was 2.38 ± 1.68 fold.

For `O=C(NC[C@H]1CN(c2ccc(N3CCOCC3=O)cc2)C(=O)O1)c1ccc(Cl)s1` [Rivaroxaban, rivaroxaban], the “Decrease in AUC by rifampicin” value [16] is given as 49% and the “Contribution of CYP3A to hepatic metabolism” value [17] is given as 61%.
